{
  "source": "paper PMC6675120",
  "about": "“Potent and selective inhibitors for M32 metallocarboxypeptidases identified from high-throughput screening of anti-kinetoplastid chemical boxes” (PLoS Neglected Tropical Diseases, 2019)",
  "key": {"TbMCP-1": {"biological_target": "TbMCP-1 (Trypanosoma brucei, UniProt Q386R0)", "sequence (Q386R0 entry or part of it)": "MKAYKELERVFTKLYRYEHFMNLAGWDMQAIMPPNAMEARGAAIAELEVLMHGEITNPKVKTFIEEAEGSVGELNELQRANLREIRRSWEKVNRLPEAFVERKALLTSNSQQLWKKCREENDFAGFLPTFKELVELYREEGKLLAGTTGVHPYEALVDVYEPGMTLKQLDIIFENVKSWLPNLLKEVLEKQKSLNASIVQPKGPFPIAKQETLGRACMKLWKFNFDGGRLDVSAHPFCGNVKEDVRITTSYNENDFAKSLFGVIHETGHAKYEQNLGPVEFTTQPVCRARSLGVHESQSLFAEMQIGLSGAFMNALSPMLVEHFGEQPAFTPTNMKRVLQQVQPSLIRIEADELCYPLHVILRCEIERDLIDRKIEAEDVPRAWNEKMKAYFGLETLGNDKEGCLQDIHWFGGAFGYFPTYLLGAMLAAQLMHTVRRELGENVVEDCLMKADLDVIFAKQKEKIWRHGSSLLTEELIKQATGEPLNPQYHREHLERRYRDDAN", "assay": "Continuous fluorogenic (FRET) TbMCP-1 assay with Abz-RFFK(Dnp)-OH, primary and secondary screening", "type": "biochemical"}, "L. donovani": {"system": "L. donovani", "design": "method as in https://pubchem.ncbi.nlm.nih.gov/compound/91800813", "details": "ref https://pubchem.ncbi.nlm.nih.gov/compound/91800813; cited from earlier work"}, "cruzipain": {"system": "cruzipain", "design": "method as in PMID 28935948", "details": "at 25 μM; cited from earlier work"}, "TcMCP-1": {"biological_target": "TcMCP-1 (Trypanosoma cruzi, UniProt Q6ZXC0)", "sequence (Q6ZXC0 entry or part of it)": "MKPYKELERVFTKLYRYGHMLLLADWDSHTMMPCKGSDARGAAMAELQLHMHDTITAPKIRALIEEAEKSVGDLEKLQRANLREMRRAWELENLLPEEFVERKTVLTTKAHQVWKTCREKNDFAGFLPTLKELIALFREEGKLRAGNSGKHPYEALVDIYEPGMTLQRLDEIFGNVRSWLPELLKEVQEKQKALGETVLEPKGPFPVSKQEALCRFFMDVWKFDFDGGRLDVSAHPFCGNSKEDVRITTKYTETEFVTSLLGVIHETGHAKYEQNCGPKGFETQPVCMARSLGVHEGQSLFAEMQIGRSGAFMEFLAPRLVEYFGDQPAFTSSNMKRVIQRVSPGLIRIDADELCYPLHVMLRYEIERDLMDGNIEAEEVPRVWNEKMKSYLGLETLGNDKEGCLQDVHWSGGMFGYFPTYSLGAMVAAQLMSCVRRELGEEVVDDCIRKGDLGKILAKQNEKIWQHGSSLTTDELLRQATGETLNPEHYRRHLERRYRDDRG", "assay": "Continuous fluorogenic (FRET) TcMCP-1 assay with Abz-LKFK(Dnp)-OH, primary and secondary screening", "type": "biochemical", "design": "inhibition: dose or concentration left out as unconfirmed"}, "[1]": {"details": "four-parameter Hill fit of dose-response curve"}, "[2]": {"details": "secondary (31,5 µM) / primary (25 µM) inhibition"}},
  "note": "Where two headings read alike, the source gives them in different places.",
  "data": [
    {"compound": "N#Cc1ccc(S(=O)(=O)N2CCN(Cc3cccc(-c4ccncc4)c3)CC2)cc1", "note": "[TCMDC-143620]", "values": [
      {"measurement": "potency on TbMCP-1 lower than on TcMCP-1", "setting": "TbMCP-1; TbMCP-1 vs TcMCP-1", "value": "~ 7 fold"},
      {"measurement": "TbMCP-1 Hill Slope", "setting": "TbMCP-1; [1]", "value": "-1,461"},
      {"measurement": "TbMCP-1 2º/1º ratio", "setting": "TbMCP-1; [2]", "value": "2,14"},
      {"measurement": "inhibition at 25 µM", "setting": "TbMCP-1; single inhibitor concentration 25 µM, read-out: TbMCP-1 Primary screening Inhibition (%)", "value": 45.2, "unit": "%"},
      {"measurement": "inhibition", "setting": "TbMCP-1; single inhibitor concentration 31,5 µM", "value": 96.6, "unit": "%"},
      {"measurement": "activity on L. donovani", "setting": "L. donovani", "value": "moderate but measurable activity"},
      {"measurement": "cruzipain inhibition", "setting": "cruzipain", "value": "~ 7,5%"},
      {"measurement": "IC50", "setting": "TcMCP-1", "value": 694, "unit": "nM"},
      {"measurement": "TcMCP-1 Hill Slope", "setting": "TcMCP-1; [1]", "value": "-1,06"},
      {"measurement": "inhibition", "setting": "TcMCP-1; read-out: TcMCP-1 Secondary screening Inhibition (%)", "value": 96.7, "unit": "%"},
      {"measurement": "TcMCP-1 2º/1º ratio", "setting": "TcMCP-1; [2]", "value": "1,18"},
      {"measurement": "IC50", "setting": "TcMCP-1; secondary screening, two-fold dilutions 7,5 pM to 62,5 μM, KM/[S] ~ 1, no replicates", "value": "≤ 10000", "unit": "nM"},
      {"measurement": "inhibition at 25 µM", "setting": "TcMCP-1; single inhibitor concentration 25 µM", "value": 82.1, "unit": "%"}
    ]}
  ]
}
